According to patent US20160081309A1, “FRUCTOBACILLUS AS A PROBIOTIC FOR HONEYBEES” (Indiana University Research & Technology Corporation, priority 2014, published 2016):

What was measured:
Fructobacillus sp. = assay: Antibiotic sensitivity test, soft agar overlay with antibiotic discs; type: cell-based; settings: Fructobacillus soft MRS agar overlay, disc content 5-30 mcg as given per antibiotic; for Zone of Inhibition: BBL Sensi-Disc
Experimental: Evolutionary analyses were conducted in MEGA6 using the 16S rRNA gene sequences and using a Maximum Likelihood method based on the General Time Reversible Model with a gamma distribution, invariable sites and 100 bootstrap replicates (Tamura et al. (2013) Mol Biol Evol, 30:2725-2729). For antibiotic sensitivity tests, overnight cultures of Fructobacillus sp. were mixed with soft MRS agar and overlayed onto MRS plates onto which an antibiotic impregnated disc had been placed. Diameters of zones of inhibition were measured around each antibiotic disc using a ruler. Antibiotics used were BBL Sensi-Disc tetracycline 30 mcg, ampicillin with sulbactam 20 mcg, rifampin 5 mcg, ciprofloxacin 5 mcg, and vancomycin 30 mcg.
Honey bees are commonly prophylactically treated with oxytetracycline for the prevention of foulbrood diseases caused by the bacteria Melissococcus plutonius and Paenibacillus larvae. […] The bacterial strain's resistance to antibiotics was determined, as treatment might alter the abundance of Fructobacillus in the hive. Using soft agar overlays, Fructobacillus cultures were exposed to five different antibiotics (tetracycline, ampicillin (with sulbactam), rifampicin, ciprofloxacin, and vancomycin), and the resulting zones of inhibition were measured (Table 3). […] These two antibiotics are commonly used in agriculture.

Fructobacillus FJL = assay: Carbon source utilization assay (Biolog MT2 plates); type: cell-based; settings: 2% carbohydrate, Biolog MT2, 30° C. aerobic; versus water-only controls, unpaired t-test p≦0.001
Experimental: The same Fructobacillus isolate as used for co-culture assays was grown for 72 hours in MRS broth at 30° C. under aerobic conditions. Cells were pelleted via centrifugation and the supernatant was removed. The pellet was resuspended in a buffer of 0.1M Tris-HCl (pH 6.5). This centrifugation and resuspension process was performed twice to ensure removal of all residual MRS. 15 μl of cell suspension was added to each well of a Biolog MT2 plate (Biolog Inc.). To this, 150 μl of 2% carbohydrate solutions were added to the wells, with each carbohydrate repeated in triplicate. Additionally, water control wells were established in triplicate, inoculated with cell suspension and filtered, autoclaved water. […] Plates were read via spectrophotometry at A590 immediately following inoculation in order to establish as baseline. Plates were incubated aerobically at 30° C., and A590 readings were taken every 24 hours. […] To assess whether a carbon source was utilized, absorbance readings from time points with peak absorbance were compared to absorbance of the initial time point. Absorbance in water control wells was subtracted from absorbance in carbohydrate containing wells. […] A carbon source was determined to have been utilized by Fructobacillus if the difference was statistically significant with a p-value of 0.001 or lower.

SMILES | Zone of Inhibition (Fructobacillus sp.) | Interpretation (antibiotic sensitivity) (Fructobacillus sp.) | Utilization of carbon source by Fructobacillus (Fructobacillus FJL)
O=C(O)c1cn(C2CC2)c2cc(N3CCNCC3)c(F)cc2c1=O [Ciprofloxacin] | 9 mm | Resistant | –
CO[C@H]1/C=C/O[C@@]2(C)Oc3c(C)c(O)c4c(O)c(c(/C=N/N5CCN(C)CC5)c(O)c4c3C2=O)NC(=O)/C(C)=C\C=C\[C@H](C)[C@H](O)[C@@H](C)[C@@H](O)[C@@H](C)[C@H](OC(C)=O)[C@@H]1C [Rifampin] | 25 mm | Susceptible | –
CN(C)[C@@H]1C(O)=C(C(N)=O)C(=O)[C@@]2(O)C(O)=C3C(=O)c4c(O)cccc4[C@@](C)(O)[C@H]3C[C@@H]12 [Tetracycline] | 32 mm | – | –
CN[C@H](CC(C)C)C(=O)N[C@H]1C(=O)N[C@@H](CC(N)=O)C(=O)N[C@H]2C(=O)N[C@H]3C(=O)N[C@H](C(=O)N[C@H](C(=O)O)c4cc(O)cc(O)c4-c4cc3ccc4O)[C@H](O)c3ccc(c(Cl)c3)Oc3cc2cc(c3O[C@@H]2O[C@H](CO)[C@@H](O)[C@H](O)[C@H]2O[C@H]2C[C@](C)(N)[C@H](O)[C@H](C)O2)Oc2ccc(cc2Cl)[C@H]1O [Vancomycin] | 0 mm | Resistant | –
O=C(CO)[C@@H](O)[C@H](O)[C@H](O)CO [fructose] | – | – | capable of utilizing
